Measurements published in US5854067A, “Hexokinase inhibitors” (priority 1996, dated 1998).
Like-named read-outs stand apart in the source and are kept apart here. Each block holds one molecule with its values, some of them ahead of it.

How the values were obtained:
[1] = system: Glucokinase (GK, hexokinase IV); conditions: Table 1, GK, cited from earlier work
[2] = system: Hexokinases I, II, and III (HK I-III, low Km hexokinases); conditions: Table 1, HK I-III, cited from earlier work
[3] = biological target: T1, native (wild type) islet glucokinase (Rattus norvegicus, UniProt P17712); assay: Radioisotopic glucose phosphorylating activity assay in extracts of transiently transfected 293 cells, with and without G6P; format: biochemical; conditions: 10 mM unlabeled G6P, 3 and 20 mM glucose, 293 cell extracts
T1 construct: Plasmids containing DNA encoding either intact islet glucokinase; expressed in transfected cells; host or cells: 293 human embryonic kidney cells, transient transfection, crude extract
T1 sequence (P17712 1-465): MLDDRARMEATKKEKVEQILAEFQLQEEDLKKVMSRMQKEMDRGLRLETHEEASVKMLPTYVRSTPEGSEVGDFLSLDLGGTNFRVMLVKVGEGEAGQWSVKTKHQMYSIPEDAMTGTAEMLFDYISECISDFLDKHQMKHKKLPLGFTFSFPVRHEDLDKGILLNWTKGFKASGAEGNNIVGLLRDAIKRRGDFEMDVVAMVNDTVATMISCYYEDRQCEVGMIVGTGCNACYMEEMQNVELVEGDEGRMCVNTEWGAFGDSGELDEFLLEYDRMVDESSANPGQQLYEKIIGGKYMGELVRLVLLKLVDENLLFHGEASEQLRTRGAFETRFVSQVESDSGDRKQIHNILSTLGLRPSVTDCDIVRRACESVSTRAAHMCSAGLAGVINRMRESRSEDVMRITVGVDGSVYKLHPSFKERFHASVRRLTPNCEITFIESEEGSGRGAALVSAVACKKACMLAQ
Method: Plasmids containing DNA encoding either intact islet glucokinase, hexokinase I or one of the two hexokinase/glucokinase chimeras were introduced into the human embryonic kidney cell line 293, using Ca2 PO4 co-precipitation. After incubation with the plasmid DNA, cells were cultured for an additional 48 hours.
Assays were performed at 3 and 20 mM glucose. At the lower glucose concentration, hexokinase activity is maximal while glucokinase activity is very low. […] The assay was also performed in the presence and absence of 10 mM unlabeled glucose-6-phosphate (G6P).

Structure (SMILES): Nc1ncnc2c1ncn2[C@@H]1O[C@H](COP(=O)(O)OP(=O)(O)OP(=O)(O)O)[C@@H](O)[C@H]1O [ATP]
Km ([1]; read-out: Km ATP): 500 µM
Km ([2]; read-out: Km ATP): 200 to 500 µM

effect of glucose-6-phosphate on glucose phosphorylating activity [3]: no significant effect
Structure (SMILES): O=P(O)(O)OC[C@H]1OC(O)[C@H](O)[C@@H](O)[C@@H]1O (some centres unmarked) [G-6-P, glucose-6-phosphate]

Structure (SMILES): OC[C@H]1OC(O)[C@H](O)[C@@H](O)[C@@H]1O (some centres unmarked) [glucose]
Km ([1]; read-out: Km glucose): 5000 to 12000 µM
Km ([2]; read-out: Km glucose): 20 to 130 µM
